Nine compounds from patent publication US9394290B2, “Selective CYP11B1 inhibitors for the treatment of cortisol dependent diseases” (UNIVERSITAET DES SAARLANDES CAMPUS SAARBRUECKEN, priority 2010, dated 2016) can be followed below.

Molecules are shown by their SMILES. A value given as a limit tells only on which side of the number the result lay.

For one experiment, the target named is human CYP17 (Homo sapiens (Human), UniProt P05093). In words: CYP17 inhibition assay (membrane fraction of E. coli expressing human CYP17, substrate progesterone). The format is biochemical. As to conditions: 25 μM, inhibitor concentration 2.0 μM, read-out: inhibition (%) CYP 17. The procedure: Recombinant E. coli pJL17/OR coexpressing human CYP17 and rat NADPH-P450-reductase were grown and stored as described by Ehmer et al. (J. Steroid Biochem. Mol. Biol., 2000, 75, 57-63)
For isolation of membrane fractions, 5 ml of bacterial suspension with an OD578 of 50 were washed using phosphate buffer (0.05 M, pH 7.4, 1 mM MgCl2, 0.1 mM EDTA and 0.1 mM dithiothreitol). Bacteria were harvested by centrifugation (2000×g) and the pellet was resuspended in 10 ml ice-cold TES buffer (0.1 M tris-acetate, pH 7.8, 0.5 mM EDTA, 0.5 M sucrose). Lysozyme was added with 10 ml of ice-cold water resulting in a concentration of 0.2 mg/ml followed by incubation for 30 min on ice with continuous shaking. Spheroplasts were harvested by centrifugation (12000×g, 10 min), and resuspended in 4 ml of ice-cold phosphate buffer (the same as described above plus 0.5 mM phenylmethylsulfonylfluoride (PMSF)).
After that spheroplasts were sonicated on ice (pulse 20 s on, 30 s off, five times), using a sonicator Sonopuls HD60 (Bandelin, Berlin, Germany) at maximum power. Unbroken cells and debris were pelleted at 3000×g for 7 min, and the supernatant was centrifuged at 50000×g for 20 min at 4° C. The membrane pellet was resuspended in 2 ml of phosphate buffer (the same as described above) with 20% glycerol using an ultra-turrax T25 (IKA-Labortechnik, Staufen, Germany). Protein concentration was determined by the method of Lowry.
The assay was performed as follows: a solution of 6.25 nmol progesterone (in 5 μl methanol) in 140 μl phosphate buffer (0.05 M, pH 7.4, 1 mM MgCl2, 0.1 mM EDTA and 0.1 mM dithiothreitol), 50 μl NADPH generating system (in phosphate buffer with 10 mM NADP, 100 mM glucose-6-phosphate and 2.5 units of glucose-6-phosphate-dehydrogenase) and inhibitor (in 5 μl DMSO) was pre-incubated at 37° C. for 5 min. Control cups were supplemented with 5 μl DMSO without inhibitor. The reaction was started by adding 50 μl of a 1:5 diluted membrane suspension in phosphate buffer (0.8-1.0 mg protein per ml). The maximum DMSO concentration in each sample was 2%. After mixing, incubation was performed for 30 min at 37° C. Subsequently the reaction was stopped with 50 μl 1 N HCl.
Extraction of the steroids was performed by addition of 1.0 ml ethyl acetate and vigorous shaking for 1 min. After a centrifugation step (5 min, 2500×g) the organic phase (0.9 ml) was transferred into a fresh cup containing 0.25 ml of incubation buffer and 50 μl 1 N HCl and mixed again. After centrifugation, 0.8 ml ethyl acetate solution was evaporated to dryness in a fresh cup. After that the steroids were redissolved in solvent for HPLC analysis (Hutschenreuter et. al. J. Enz. Inhib. Med. Chem. 2004, 19, 17-32).
The above experiment was conducted at least three times and a mean value for the CYP17 inhibition calculated.

The next experiment concerns the target Human placental CYP19 (Homo sapiens (Human), UniProt P11511). In words: CYP19 (aromatase) assay, human placental microsomes, 3H2O release. The format is biochemical. As to conditions: substrate androstenedione, 500 nM, inhibitor concentration 500 nM, read-out: inhibition (%) CYP 19. The procedure:
The enzyme was obtained from the microsomal fraction of freshly delivered human term placental tissue according to the procedure of Thompson and Siiteri (Thompson, E. A.; Siiteri, P. K. J. Biol. Chem. 1974, 249, 5364).
The isolated microsomes were suspended in a minimum volume of phosphate buffer (0.05 M, pH 7.4, 20% glycerol). Additionally, DTT (dithiothreitol, 10 mM) and EDTA (1 mM) were added to protect the enzyme from degradation. The enzyme preparation was stored at −70° C.
The assay was performed monitoring enzyme activity by measuring the ^3H2O formed from [1β-^3H]androstenedione during aromatization (Hartmann et al. J. Med. Chem. 1986, 29, 1362-1369). […] The test compounds were dissolved in DMSO and diluted with buffer. The final DMSO concentration in the control and inhibitor incubation was 2%. Each tube was pre-incubated for 5 min at 30° C. in a water bath. Microsomal protein was added to start the reaction (0.1 mg). The total volume for each incubation was 0.25 ml. The reaction was terminated by the addition of 200 μl of a cold 1 mM HgCl2 solution. After addition of 200 μl of an aqueous dextran-coated charcoal (DCC) suspension (2%), the vials were shaken for 20 min and centrifuged at 1500×g for 5 min to separate the charcoal-absorbed steroids. The supernatant was assayed for ^3H2O by counting in a scintillation mixture using a β-counter. The calculation of the IC50 values was performed by plotting the percent inhibition vs. the concentration of inhibitor on a semi-log plot.
The above experiment was conducted at least three times and a mean value for the CYP19 inhibition calculated.

For the next experiment, the target named is human CYP11B1 (Homo sapiens (Human), UniProt P15538). Put plainly: Cellular assay for CYP11B1 inhibition (V79MZh11B1 hamster fibroblasts, substrate 11-deoxycorticosterone). As to conditions: for sf: selectivity factor: IC50 (CYP11B2)/IC50 (CYP11B1): ratio IC50 (CYP11B2)/IC50 (CYP11B1); for IC50: read-out: IC50 value CYP11B1, Hamster fibroblasts expressing human CYP11B1, substrate 11-deoxycorticosterone, 100 nM, mean of at least three experiments.

In a further experiment the target is human CYP11B2 (Homo sapiens (Human), UniProt P19099). In words: Cellular assay for CYP11B2 inhibition (V79MZh11B2 hamster fibroblasts, substrate 11-deoxycorticosterone). As to conditions: read-out: IC50 value CYP11B2, Hamster fibroblasts expressing human CYP11B2, 100 nM, mean of at least three experiments, n.i. = no inhibition at an inhibitor concentration of 500 nM.
human CYP11B2, sequence (P19099 25-503): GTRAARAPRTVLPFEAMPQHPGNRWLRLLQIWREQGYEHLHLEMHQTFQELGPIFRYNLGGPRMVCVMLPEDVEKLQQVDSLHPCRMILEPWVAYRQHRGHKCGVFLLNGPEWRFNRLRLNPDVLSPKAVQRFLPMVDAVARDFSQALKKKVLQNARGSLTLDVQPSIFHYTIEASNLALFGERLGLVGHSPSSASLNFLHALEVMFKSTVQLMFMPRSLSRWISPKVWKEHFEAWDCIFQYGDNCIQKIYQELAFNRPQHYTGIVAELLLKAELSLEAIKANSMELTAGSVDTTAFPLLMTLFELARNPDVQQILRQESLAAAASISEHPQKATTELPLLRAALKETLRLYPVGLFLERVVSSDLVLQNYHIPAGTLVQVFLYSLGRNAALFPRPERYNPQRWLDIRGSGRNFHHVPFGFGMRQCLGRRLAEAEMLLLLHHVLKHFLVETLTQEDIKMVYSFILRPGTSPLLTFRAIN

human CYP17, sequence (P05093 whole entry): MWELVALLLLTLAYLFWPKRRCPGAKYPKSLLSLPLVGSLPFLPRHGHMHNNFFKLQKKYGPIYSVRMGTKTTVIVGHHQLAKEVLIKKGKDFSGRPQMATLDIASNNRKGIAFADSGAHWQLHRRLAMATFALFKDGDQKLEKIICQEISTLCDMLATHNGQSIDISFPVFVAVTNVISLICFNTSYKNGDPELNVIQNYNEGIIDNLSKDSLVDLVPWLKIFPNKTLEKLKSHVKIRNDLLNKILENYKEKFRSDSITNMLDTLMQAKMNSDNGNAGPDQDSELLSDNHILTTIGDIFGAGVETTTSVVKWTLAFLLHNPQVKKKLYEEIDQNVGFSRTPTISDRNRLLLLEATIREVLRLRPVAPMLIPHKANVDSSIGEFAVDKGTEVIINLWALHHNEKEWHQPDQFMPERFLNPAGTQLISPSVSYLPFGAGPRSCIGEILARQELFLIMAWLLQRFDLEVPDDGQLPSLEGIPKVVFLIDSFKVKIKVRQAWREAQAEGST
Human placental CYP19, sequence (P11511 whole entry): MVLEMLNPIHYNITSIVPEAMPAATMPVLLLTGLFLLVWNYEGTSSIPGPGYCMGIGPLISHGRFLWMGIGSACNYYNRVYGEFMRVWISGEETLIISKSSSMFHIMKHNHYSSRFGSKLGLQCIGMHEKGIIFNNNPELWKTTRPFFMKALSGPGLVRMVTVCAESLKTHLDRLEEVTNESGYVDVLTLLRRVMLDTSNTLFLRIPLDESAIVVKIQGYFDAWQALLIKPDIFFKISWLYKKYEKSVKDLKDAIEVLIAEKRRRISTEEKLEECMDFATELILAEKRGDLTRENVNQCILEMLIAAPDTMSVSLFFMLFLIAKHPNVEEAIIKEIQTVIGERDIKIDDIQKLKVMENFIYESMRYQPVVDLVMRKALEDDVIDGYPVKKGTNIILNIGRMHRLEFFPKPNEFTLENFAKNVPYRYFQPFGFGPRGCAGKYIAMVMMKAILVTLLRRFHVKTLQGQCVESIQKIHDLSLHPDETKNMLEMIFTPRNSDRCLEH
human CYP11B1, sequence (P15538 25-503): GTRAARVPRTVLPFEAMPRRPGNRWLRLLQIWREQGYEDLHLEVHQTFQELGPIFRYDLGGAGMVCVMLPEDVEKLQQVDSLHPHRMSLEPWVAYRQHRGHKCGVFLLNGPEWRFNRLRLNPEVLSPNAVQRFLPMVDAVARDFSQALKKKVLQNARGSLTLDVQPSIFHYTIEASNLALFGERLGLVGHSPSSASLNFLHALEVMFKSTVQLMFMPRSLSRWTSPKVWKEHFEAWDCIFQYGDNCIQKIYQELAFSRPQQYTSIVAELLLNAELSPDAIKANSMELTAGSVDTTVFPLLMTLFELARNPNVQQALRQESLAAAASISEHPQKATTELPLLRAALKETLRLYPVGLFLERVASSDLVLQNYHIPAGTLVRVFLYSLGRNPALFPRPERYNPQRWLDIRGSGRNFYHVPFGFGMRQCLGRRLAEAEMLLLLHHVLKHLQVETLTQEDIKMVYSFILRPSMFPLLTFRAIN

As for `Oc1ccc(-c2ccc(Cn3ccnc3)cn2)cc1F` [Compound 11, 2-Fluoro-4-(5-imidazol-1-ylmethyl-pyridin-2-yl)-phenol], on human CYP17, the inhibition at 2 µM was 2.6%. Moreover, the inhibition at 0.5 µM on Human placental CYP19 came out at 0%. Further, at human CYP11B1, the “sf: selectivity factor: IC50 (CYP11B2)/IC50 (CYP11B1)” value (“sf: selectivity factor: IC50” below) is listed as 14 and the IC50 is 17 nM. Further, on human CYP11B2, the IC50 turned out to be 237 nM.

In the case of `Nc1ccccc1-c1ccc(Cn2ccnc2)cn1` [Compound 15, 2-(5-Imidazol-1-ylmethyl-pyridin-2-yl)-phenylamine], on human CYP17, the inhibition at 2 µM was 6%. In addition, the inhibition at 0.5 µM at Human placental CYP19 came to 0%. Besides, the “sf: selectivity factor: IC50” value on human CYP11B1 was 21. Further, the values for the IC50 at human CYP11B1 and on human CYP11B2 were 101 nM and 2110 nM, respectively.

For the compound `c1ccc(-c2cc(Cn3ccnc3)cnc2-c2ccccc2)cc1` [Compound 25, 5-Imidazol-1-ylmethyl-2,3-diphenyl-pyridine], the inhibition at 2 µM at human CYP17 stood at 3%. On Human placental CYP19, the inhibition at 0.5 µM worked out at 0%. At human CYP11B1, the “sf: selectivity factor: IC50” value was 2.4 and the IC50 came out at 362 nM. Besides, at human CYP11B2, the IC50 came out at 851 nM.

With `c1ccc2c(-c3ccc(Cn4ccnc4)cn3)cccc2c1` [Compound 23, 5-Imidazol-1-ylmethyl-2-naphthalen-1-yl-pyridine], the inhibition at 2 µM on human CYP17 was found to be 8%. Besides, at Human placental CYP19, the inhibition at 0.5 µM stood at 5%. Further, on human CYP11B1, the “sf: selectivity factor: IC50” value is 49 and the IC50 turned out to be 42 nM. The IC50 at human CYP11B2 was 2080 nM.

Take `c1cn(Cc2ccc(-c3ccoc3)nc2)cn1` [Compound 40, 2-Furan-3-yl-5-imidazol-1-ylmethyl-pyridine]: on human CYP17, the inhibition at 2 µM turned out to be 8%. For the same compound, at Human placental CYP19, the inhibition at 0.5 µM came to 0%. Moreover, at human CYP11B1, the “sf: selectivity factor: IC50” value amounted to 37 and the IC50 was found to be 76 nM. Further, the IC50 at human CYP11B2 came to 2830 nM.

For `O=Cc1ccc(-c2ccc(Cn3ccnc3)cn2)s1` [Compound 34, 5-(5-Imidazol-1-ylmethyl-pyridin-2-yl)-thiophene-2-carbaldehyde], the inhibition at 2 µM on human CYP17 stood at 5%. Also, the inhibition at 0.5 µM at Human placental CYP19 is 0%. Also, the “sf: selectivity factor: IC50” value at human CYP11B1 worked out at 16. Further, the figures for the IC50 on human CYP11B1 and at human CYP11B2 were 62 nM and 968 nM, respectively.

As for `c1coc(-c2ccc(Cn3ccnc3)cn2)c1` [Compound 39, 2-Furan-2-yl-5-imidazol-1-ylmethyl-pyridine], the inhibition at 2 µM at human CYP17 turned out to be 1%. Further, on Human placental CYP19, the inhibition at 0.5 µM was 0%. Further, on human CYP11B1, the “sf: selectivity factor: IC50” value was found to be 31 and the IC50 was 167 nM. Moreover, the IC50 on human CYP11B2 was 5160 nM.

As for `COc1ccccc1-c1ccc(Cn2ccnc2)cn1` [Compound 12, 5-Imidazol-1-ylmethyl-2-(2-methoxy-phenyl)pyridine], the inhibition at 2 µM on human CYP17 is 5%. Moreover, the inhibition at 0.5 µM on Human placental CYP19 was 4%. Also, at human CYP11B1, the “sf: selectivity factor: IC50” value was 26 and the IC50 came out at 167 nM. At human CYP11B2, the IC50 is 4390 nM.

Take `Cc1ccc(-c2ccc(Cn3ccnc3)cn2)cc1N` [Compound 18, 5-(5-Imidazol-1-ylmethyl-pyridin-2-yl)-2-methyl-phenylamine]: on human CYP17, the inhibition at 2 µM was determined as 3%. For the same compound, the inhibition at 0.5 µM on Human placental CYP19 was 0%. The results for the IC50 on human CYP11B1 and at human CYP11B2 were 542 nM and greater than 1000 nM, respectively.
